Measured values from US12215215B2, “Stabilizer compositions and methods for using same for protecting polymeric organic materials from UV light and thermal degradation” (Cytec Industries Inc., priority 2014, dated 2025).

Assay: Solubility of triazine UV absorbers in cyclohexane at room temperature
Assay type: physicochemical
Conditions: room temperature (20° C.)
Text: UV stabilizers and co-additives. […] Solubility measurements of various orthohydroxyphenyl triazines in cyclohexane (substitute for polypropylene) conducted at room temperature indicate that such triazines having a solubility greater than 0.04 wt. % can be used in certain embodiments as the UV absorber of the stabilizer compositions described herein.

| Compound | Solubility of triazines in Cyclohexane at room temperature |
| --- | --- |
| CCCCCCCCOc1ccc(-c2nc(-c3ccc(OCCCCCCCC)cc3O)nc(-c3ccc(OCCCCCCCC)cc3O)n2)c(O)c1 [Formulation P-800, 2,4,6-tris(2-hydroxy-4-octyloxy-phenyl)-1,3,5-triazine] | >0.04% weight % |
| CCCCCCCCOc1ccc(-c2nc(-c3ccc(C)cc3C)nc(-c3ccc(C)cc3C)n2)c(O)c1 [UV-1164, 2-[4,6-bis(2,4-dimethylphenyl)-1,3,5-triazin-2-yl]-5-(octyloxy) phenol] | 1.4 ± 0.2 weight % |
